What was measured:
Details in all cases: 48 h
NOMO1 [1] = test: cell viability relative to DMSO control; higher = less cytotoxic
In short: (§1)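 NOMO1 or SEM (500 cells/well) or P12-Ichikawa (1000 cells/well) leukemia cells were adapted for at least four passages in each medium. They were seeded in 1536-well plates (5 μl) and pin-dosed with library compounds in DMSO over an 11-point threefold series, 47 μM to 0.79 nM. CellTiter-Glo One luminescence was read after 48 h at 37°C. Viability is the per-plate percentage relative to DMSO wells, with cell-free wells as background.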

P12-Ichikawa [2] = test: as above
In short: as §1

SEM cells [3] = test: as above
In short: as §1

NOMO1 [4] = test: AUC of viability dose-response curve (% viability x log10 dose units); higher = less sensitive
In short: (§2)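 Area under the curve was integrated by trapezoidal rule from a log-logistic fit of normalised viability, with curves exceeding full viability scaled and quality-control failures removed. The fit had four parameters over log10 doses. Viability came from CellTiter-Glo One luminescence, normalised per plate to DMSO and cell-free wells, after leukemia cells adapted to each medium (500 or 1000 cells/well, 1536-well plates) were exposed to library compounds in DMSO for 48 h at 37°C. The 11 threefold doses ran from 47 μM to 0.79 nM.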

P12-Ichikawa [5] = test: as above
In short: as §2

SEM cells [6] = test: as above
In short: as §2

COc1cc(Nc2ncc(F)c(Nc3ccc4c(n3)N(COP(=O)(O)O)C(=O)C(C)(C)O4)n2)cc(OC)c1OC
cell viability [%]
Details	NOMO1 [1]	P12-Ichikawa [2]	SEM cells [3]
HPLM + 10% dialyzed FBS, 0.000781 µM	93.5	97	77
HPLM + 10% dialyzed FBS, 0.00234 µM	94.8	102	88.7
HPLM + 10% dialyzed FBS, 0.00702 µM	101	101	95.8
HPLM + 10% dialyzed FBS, 0.0211 µM	97.2	102	91.2
HPLM + 10% dialyzed FBS, 0.0632 µM	122	108	65.9
HPLM + 10% dialyzed FBS, 0.19 µM	106	106	55.2
HPLM + 10% dialyzed FBS, 0.569 µM	87.6	105	35
HPLM + 10% dialyzed FBS, 1.71 µM	99.5	103	33.5
HPLM + 10% dialyzed FBS, 5.12 µM	116	110	49.9
HPLM + 10% dialyzed FBS, 15.4 µM	93.5	108	37.1
HPLM + 10% dialyzed FBS, 46.1 µM	91.1	98.2	35.5
RPMI 5 mM glucose + 10% FBS, 0.000781 µM	80.8	100	98.2
RPMI 5 mM glucose + 10% FBS, 0.00234 µM	90.2	98.2	108
RPMI 5 mM glucose + 10% FBS, 0.00702 µM	94.1	89.6	102
RPMI 5 mM glucose + 10% FBS, 0.0211 µM	100	100	107
RPMI 5 mM glucose + 10% FBS, 0.0632 µM	103	97.4	77.9
RPMI 5 mM glucose + 10% FBS, 0.19 µM	98.6	96.8	41.1
RPMI 5 mM glucose + 10% FBS, 0.569 µM	95.6	92.4	26.5
RPMI 5 mM glucose + 10% FBS, 1.71 µM	94.4	95.7	34.7
RPMI 5 mM glucose + 10% FBS, 5.12 µM	94.1	95.2	42.8
RPMI 5 mM glucose + 10% FBS, 15.4 µM	94.2	93.9	35.1
RPMI 5 mM glucose + 10% FBS, 46.1 µM	92.6	87.4	34.4
RPMI 5 mM glucose + 10% dialyzed FBS, 0.000781 µM	101	92.8	80.8
RPMI 5 mM glucose + 10% dialyzed FBS, 0.00234 µM	89	94.8	96.6
RPMI 5 mM glucose + 10% dialyzed FBS, 0.00702 µM	90.8	98.4	83.5
RPMI 5 mM glucose + 10% dialyzed FBS, 0.0211 µM	80.2	98	82.1
RPMI 5 mM glucose + 10% dialyzed FBS, 0.0632 µM	89.6	103	60.2
RPMI 5 mM glucose + 10% dialyzed FBS, 0.19 µM	102	97.7	35.7
RPMI 5 mM glucose + 10% dialyzed FBS, 0.569 µM	88.5	93.9	25.1
RPMI 5 mM glucose + 10% dialyzed FBS, 1.71 µM	86.6	91.1	23.7
RPMI 5 mM glucose + 10% dialyzed FBS, 5.12 µM	94.6	101	35.1
RPMI 5 mM glucose + 10% dialyzed FBS, 15.4 µM	89.4	91.6	22
RPMI 5 mM glucose + 10% dialyzed FBS, 46.1 µM	99.1	91.6	24.6

AUC of viability dose-response curve
Details	NOMO1 [4]	P12-Ichikawa [5]	SEM cells [6]
HPLM + 10% dialyzed FBS	472	470	287
RPMI 5 mM glucose + 10% FBS	453	456	292
RPMI 5 mM glucose + 10% dialyzed FBS	438	457	245

O=C(C1CC1)N1CC[C@@H](Cn2c(-c3ccc(-c4ccc5occc5c4)cc3)nc3cnccc32)C1
cell viability [%]
Details	NOMO1 [1]	P12-Ichikawa [2]	SEM cells [3]
HPLM + 10% dialyzed FBS, 0.000781 µM	93.7	101	94.6
HPLM + 10% dialyzed FBS, 0.00234 µM	128	117	91.1
HPLM + 10% dialyzed FBS, 0.00702 µM	117	108	106
HPLM + 10% dialyzed FBS, 0.0211 µM	112	114	108
HPLM + 10% dialyzed FBS, 0.0632 µM	122	117	98.8
HPLM + 10% dialyzed FBS, 0.19 µM	135	126	107
HPLM + 10% dialyzed FBS, 0.569 µM	121	122	115
HPLM + 10% dialyzed FBS, 1.71 µM	134	127	108
HPLM + 10% dialyzed FBS, 5.12 µM	117	124	104
HPLM + 10% dialyzed FBS, 15.4 µM	123	119	121
HPLM + 10% dialyzed FBS, 46.1 µM	82.6	111	102
RPMI 5 mM glucose + 10% FBS, 0.000781 µM	117	92.7	73.9
RPMI 5 mM glucose + 10% FBS, 0.00234 µM	101	117	89.5
RPMI 5 mM glucose + 10% FBS, 0.00702 µM	104	120	99.9
RPMI 5 mM glucose + 10% FBS, 0.0211 µM	102	121	97.9
RPMI 5 mM glucose + 10% FBS, 0.0632 µM	111	131	108
RPMI 5 mM glucose + 10% FBS, 0.19 µM	104	119	101
RPMI 5 mM glucose + 10% FBS, 0.569 µM	106	124	99.9
RPMI 5 mM glucose + 10% FBS, 1.71 µM	115	132	110
RPMI 5 mM glucose + 10% FBS, 5.12 µM	119	111	101
RPMI 5 mM glucose + 10% FBS, 15.4 µM	109	124	103
RPMI 5 mM glucose + 10% FBS, 46.1 µM	113	83.5	85.9
RPMI 5 mM glucose + 10% dialyzed FBS, 0.000781 µM	101	106	113
RPMI 5 mM glucose + 10% dialyzed FBS, 0.00234 µM	115	112	102
RPMI 5 mM glucose + 10% dialyzed FBS, 0.00702 µM	107	102	101
RPMI 5 mM glucose + 10% dialyzed FBS, 0.0211 µM	129	120	111
RPMI 5 mM glucose + 10% dialyzed FBS, 0.0632 µM	120	116	112
RPMI 5 mM glucose + 10% dialyzed FBS, 0.19 µM	112	128	119
RPMI 5 mM glucose + 10% dialyzed FBS, 0.569 µM	119	121	129
RPMI 5 mM glucose + 10% dialyzed FBS, 1.71 µM	114	128	121
RPMI 5 mM glucose + 10% dialyzed FBS, 5.12 µM	109	123	108
RPMI 5 mM glucose + 10% dialyzed FBS, 15.4 µM	110	119	114
RPMI 5 mM glucose + 10% dialyzed FBS, 46.1 µM	100	93	108

AUC of viability dose-response curve
Details	NOMO1 [4]	P12-Ichikawa [5]	SEM cells [6]
HPLM + 10% dialyzed FBS	469	461	457
RPMI 5 mM glucose + 10% FBS	456	470	465
RPMI 5 mM glucose + 10% dialyzed FBS	468	469	462

OCCNC1CCCc2c1[nH]c1ccc(-c3ccccc3)cc21 (centres undefined)
cell viability [%]
Details	NOMO1 [1]	P12-Ichikawa [2]	SEM cells [3]
HPLM + 10% dialyzed FBS, 0.000781 µM	81.8	100	81.1
HPLM + 10% dialyzed FBS, 0.00234 µM	93.5	107	86.7
HPLM + 10% dialyzed FBS, 0.00702 µM	106	106	91.5
HPLM + 10% dialyzed FBS, 0.0211 µM	105	105	84.7
HPLM + 10% dialyzed FBS, 0.0632 µM	117	110	106
HPLM + 10% dialyzed FBS, 0.19 µM	112	110	101
HPLM + 10% dialyzed FBS, 0.569 µM	109	115	90.2
HPLM + 10% dialyzed FBS, 1.71 µM	105	108	100
HPLM + 10% dialyzed FBS, 5.12 µM	104	111	85.4
HPLM + 10% dialyzed FBS, 15.4 µM	87.1	78.4	67.3
HPLM + 10% dialyzed FBS, 46.1 µM	11.2	16.6	19.5
RPMI 5 mM glucose + 10% FBS, 0.000781 µM	93.4	103	99.6
RPMI 5 mM glucose + 10% FBS, 0.00234 µM	103	111	87.8
RPMI 5 mM glucose + 10% FBS, 0.00702 µM	109	109	101
RPMI 5 mM glucose + 10% FBS, 0.0211 µM	105	108	109
RPMI 5 mM glucose + 10% FBS, 0.0632 µM	111	114	108
RPMI 5 mM glucose + 10% FBS, 0.19 µM	96.5	108	105
RPMI 5 mM glucose + 10% FBS, 0.569 µM	109	114	88.7
RPMI 5 mM glucose + 10% FBS, 1.71 µM	110	118	91.6
RPMI 5 mM glucose + 10% FBS, 5.12 µM	100	110	74
RPMI 5 mM glucose + 10% FBS, 15.4 µM	98.6	73.5	56.1
RPMI 5 mM glucose + 10% FBS, 46.1 µM	14.7	18.2	5.82
RPMI 5 mM glucose + 10% dialyzed FBS, 0.000781 µM	83.7	105	85.6
RPMI 5 mM glucose + 10% dialyzed FBS, 0.00234 µM	97.4	111	87.9
RPMI 5 mM glucose + 10% dialyzed FBS, 0.00702 µM	106	113	89.7
RPMI 5 mM glucose + 10% dialyzed FBS, 0.0211 µM	105	109	96.1
RPMI 5 mM glucose + 10% dialyzed FBS, 0.0632 µM	111	107	88.7
RPMI 5 mM glucose + 10% dialyzed FBS, 0.19 µM	99.4	114	104
RPMI 5 mM glucose + 10% dialyzed FBS, 0.569 µM	104	119	99
RPMI 5 mM glucose + 10% dialyzed FBS, 1.71 µM	96.3	114	94.2
RPMI 5 mM glucose + 10% dialyzed FBS, 5.12 µM	105	111	94.7
RPMI 5 mM glucose + 10% dialyzed FBS, 15.4 µM	88.6	80.4	68.2
RPMI 5 mM glucose + 10% dialyzed FBS, 46.1 µM	22.7	28.9	22.9

AUC of viability dose-response curve
Details	NOMO1 [4]	P12-Ichikawa [5]	SEM cells [6]
HPLM + 10% dialyzed FBS	448	444	409
RPMI 5 mM glucose + 10% FBS	454	441	413
RPMI 5 mM glucose + 10% dialyzed FBS	453	446	416

Source: the supplement of paper PMC11451515
